Molecules are shown by their SMILES.

Chain of LYN (P07948 whole entry, species assumed): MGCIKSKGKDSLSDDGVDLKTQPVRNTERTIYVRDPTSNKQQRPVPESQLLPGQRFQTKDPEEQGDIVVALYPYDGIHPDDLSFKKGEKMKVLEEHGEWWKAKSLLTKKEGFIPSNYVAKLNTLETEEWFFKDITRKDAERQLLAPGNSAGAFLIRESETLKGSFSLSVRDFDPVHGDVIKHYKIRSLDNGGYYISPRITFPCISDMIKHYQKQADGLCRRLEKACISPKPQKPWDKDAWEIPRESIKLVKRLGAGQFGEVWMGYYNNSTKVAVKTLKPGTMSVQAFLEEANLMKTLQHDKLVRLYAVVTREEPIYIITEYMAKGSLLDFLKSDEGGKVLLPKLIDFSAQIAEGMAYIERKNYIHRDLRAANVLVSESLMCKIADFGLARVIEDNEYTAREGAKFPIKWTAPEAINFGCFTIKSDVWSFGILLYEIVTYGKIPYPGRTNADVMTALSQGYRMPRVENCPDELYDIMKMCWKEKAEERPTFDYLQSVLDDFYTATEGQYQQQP

One test concerns the target LYN (Homo sapiens (Human), UniProt P07948). Put plainly: LYN kinase assay (HTRF). The conditions noted are these: [ATP]=20 μM, LYN=0.12 nM. Type of test: biochemical. In general terms: In TR-FRET formats the signal depends on donor and acceptor labels being close together.
The molecule `C=CC(=O)N1CCC[C@@H](n2c(=O)n(-c3ccc(Oc4cccc(F)c4Cl)cc3)c3cnccc32)C1` [Example 103, (R)-1-(1-acryloylpiperidin-3-yl)-3-(4-(2-chloro-3-fluorophenoxy)phenyl)-1,3-dihydro-2H-imidazo[4,5-c] pyridin-2-one] had an IC50 of 1000 to 10000 nM.

The target in the next test is LCK (Homo sapiens (Human), UniProt P06239). Put plainly: LCK kinase assay (HTRF). Type of test: biochemical. The settings on record: [ATP]=20 μM, LCK=0.2 nM.
Chain of LCK (P06239 whole entry, species assumed): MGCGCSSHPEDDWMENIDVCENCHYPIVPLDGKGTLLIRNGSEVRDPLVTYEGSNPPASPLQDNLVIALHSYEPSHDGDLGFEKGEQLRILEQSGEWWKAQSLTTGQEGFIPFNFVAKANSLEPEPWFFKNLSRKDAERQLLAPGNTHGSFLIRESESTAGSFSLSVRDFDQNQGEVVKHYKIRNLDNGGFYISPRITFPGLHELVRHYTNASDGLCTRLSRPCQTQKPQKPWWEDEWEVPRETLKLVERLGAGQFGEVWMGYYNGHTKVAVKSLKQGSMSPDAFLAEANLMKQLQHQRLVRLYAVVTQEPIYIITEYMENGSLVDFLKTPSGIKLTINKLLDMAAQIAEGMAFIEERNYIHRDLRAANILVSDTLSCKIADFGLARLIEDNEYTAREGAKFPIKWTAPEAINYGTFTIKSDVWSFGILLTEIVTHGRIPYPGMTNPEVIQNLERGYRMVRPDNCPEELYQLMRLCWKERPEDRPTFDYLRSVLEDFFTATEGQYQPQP
As for `C=CC(=O)N1CCC[C@@H](n2c(=O)n(-c3ccc(Oc4cccc(F)c4Cl)cc3)c3cnccc32)C1` [Example 103, (R)-1-(1-acryloylpiperidin-3-yl)-3-(4-(2-chloro-3-fluorophenoxy)phenyl)-1,3-dihydro-2H-imidazo[4,5-c] pyridin-2-one], the IC50 was not below 10000 nM.

The target of another test is BTK (Homo sapiens (Human), UniProt Q06187). Put plainly: Btk kinase assay (HTRF). The settings on record: Table 2; [ATP]=80 μM, BTK=3.4 nM; read-out: BTK IC50. Type of test: biochemical. Put shortly: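 BTK (3.4 nM) incubated 1 h with inhibitor, 80 μM ATP and 1 μM peptide substrate in 50 mM HEPES pH 7.0 with BSA and orthovanadate. Reaction stopped with EDTA plus Eu-antibody/XL665; HTRF 665/615 ratio read after 1 h, IC50 calculated relative to no-inhibitor and no-enzyme controls.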
Chain of BTK (Q06187 whole entry, species assumed): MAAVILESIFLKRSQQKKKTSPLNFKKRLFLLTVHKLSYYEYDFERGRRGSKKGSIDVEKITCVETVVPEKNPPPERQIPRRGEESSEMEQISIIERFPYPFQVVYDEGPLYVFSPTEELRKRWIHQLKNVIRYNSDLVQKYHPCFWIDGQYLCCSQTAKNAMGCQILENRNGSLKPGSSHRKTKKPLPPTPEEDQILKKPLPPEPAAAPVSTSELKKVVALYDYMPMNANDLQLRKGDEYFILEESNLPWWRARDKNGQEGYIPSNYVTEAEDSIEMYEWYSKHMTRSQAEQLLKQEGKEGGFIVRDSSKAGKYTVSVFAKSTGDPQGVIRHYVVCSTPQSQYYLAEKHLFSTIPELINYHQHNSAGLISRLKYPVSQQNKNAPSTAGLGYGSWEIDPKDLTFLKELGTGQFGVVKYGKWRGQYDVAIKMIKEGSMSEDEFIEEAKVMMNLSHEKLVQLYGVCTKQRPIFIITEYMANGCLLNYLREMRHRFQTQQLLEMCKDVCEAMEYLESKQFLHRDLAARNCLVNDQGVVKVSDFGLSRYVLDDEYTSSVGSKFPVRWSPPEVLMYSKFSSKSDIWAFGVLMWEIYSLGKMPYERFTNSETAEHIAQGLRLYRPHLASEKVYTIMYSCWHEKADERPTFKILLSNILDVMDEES
For `C=CC(=O)N1CCC[C@@H](n2c(=O)n(-c3ccc(Oc4cccc(F)c4Cl)cc3)c3cnccc32)C1` [Example 103, (R)-1-(1-acryloylpiperidin-3-yl)-3-(4-(2-chloro-3-fluorophenoxy)phenyl)-1,3-dihydro-2H-imidazo[4,5-c] pyridin-2-one], the IC50 lay in the range of 10 to 100 nM.

Staying with this test, now noted: [ATP]=80 μM, BTK=3.4 nM; read-out: BTK Inhibition.
On to `C=CC(=O)N1CCC[C@@H](n2c(=O)n(-c3ccc(Oc4cccc(F)c4Cl)cc3)c3cnccc32)C1` [Example 103, (R)-1-(1-acryloylpiperidin-3-yl)-3-(4-(2-chloro-3-fluorophenoxy)phenyl)-1,3-dihydro-2H-imidazo[4,5-c] pyridin-2-one], for which the IC50 fell in the range of 10 to 100 nM.

As to `C=CC(=O)N1CC[C@@H](n2c(=O)n(-c3ccc(Oc4ccccc4)cc3)c3cncc(Cl)c32)C1` [Example 151, (R)-1-(1-acryloylpyrrolidin-3-yl)-7-chloro-3-(4-phenoxyphenyl)-1H-imidazo[4,5-c]pyridin-2(3H)-one], the IC50 was not above 10 nM. The same measure, in the same setting: the result for `C=CC(=O)N1CC[C@@H](n2c(=O)n(-c3ccc(Oc4cccc(F)c4)c(Cl)c3)c3cnccc32)C1` [Example 41, (R)-1-(1-acryloylpyrrolidin-3-yl)-3-(3-chloro-4-(3-fluorophenoxy)phenyl)-1H-imidazo[4,5-c]pyridin-2(3H)-one] reads not above 10 nM; that for `C=CC(=O)Nc1cccc(-n2c(=O)n(-c3ccc(Oc4ccc(OC)c(C)c4)cc3)c3cnccc32)c1` [Example 163, N-(3-(3-(4-(4-methoxy-3-methylphenoxy)phenyl)-2-oxo-2,3-dihydro-1H-imidazo[4,5-c]pyridin-1-yl)phenyl)acrylamide], 100 to 1000 nM; that for `C=CC(=O)Nc1cccc(-n2c(=O)n(-c3ccc(Oc4cccc(OC)c4)c(Cl)c3)c3cnccc32)c1` [Example 86, N-(3-(3-(3-chloro-4-(3-methoxyphenoxy)phenyl)-2-oxo-2,3-dihydro-1H-imidazo[4,5-c]pyridin-1-yl)phenyl)acrylamide], 100 to 1000 nM. The same measure, in the same setting: the result for `C=CC(=O)Nc1cccc(-n2c(=O)n(-c3ccc(Oc4cc(Cl)cc(Cl)c4)cc3)c3cnccc32)c1` [Example 130, N-(3-(3-(4-(3,5-dichlorophenoxy)phenyl)-2-oxo-2,3-dihydro-1H-imidazo[4,5-c]pyridin-1-yl)phenyl)acrylamide] reads 100 to 1000 nM; that for `C=CC(=O)Nc1cccc(-n2c(=O)n(-c3ccc(OCc4ccc(C(F)(F)F)cc4)c(Cl)c3)c3cnccc32)c1` [Example 223, N-(3-(3-(3-chloro-4-((4-(trifluoromethyl)benzyl)oxy)phenyl)-2-oxo-2,3-dihydro-1H-imidazo[4,5-c]pyridin-1-yl)phenyl)acrylamide], 100 to 1000 nM. As for `C=CC(=O)Nc1cccc(-n2c(=O)n(-c3ccc(OCc4cccc(C(F)(F)F)c4)cc3)c3cnccc32)c1` [Example 240, N-(3-(2-oxo-3-(4-((3-(trifluoromethyl)benzyl)oxy)phenyl)-2,3-dihydro-1H-imidazo[4,5-c]pyridin-1-yl)phenyl)acrylamide], the IC50 lay within 10 to 100 nM. Same read-out and setting: the result for `C=CC(=O)N1CC[C@@H](n2c(=O)n(-c3ccc(Oc4cccc(OC)c4F)cc3)c3cncc(C)c32)C1` [Example 172, (R)-1-(1-acryloylpyrrolidin-3-yl)-3-(4-(2-fluoro-3-methoxyphenoxy)phenyl)-7-methyl-1H-imidazo[4,5-c]pyridin-2(3H)-one] reads not above 10 nM; that for `C=CC(=O)Nc1cccc(-n2c(=O)n(-c3ccc(Oc4cccc(Cl)c4Cl)cc3)c3cnccc32)c1` [Example 98, N-(3-(3-(4-(2,3-dichlorophenoxy)phenyl)-2-oxo-2,3-dihydro-1H-imidazo[4,5-c]pyridin-1-yl)phenyl)acrylamide], 10 to 100 nM; that for `C=CC(=O)N1CC[C@@H](n2c(=O)n(-c3ccc(OCc4ccc(Cl)cc4F)cc3)c3cnccc32)C1` [Example 244, (R)-1-(1-acryloylpyrrolidin-3-yl)-3-(4-((4-chloro-2-fluorobenzyl)oxy)phenyl)-1H-imidazo[4,5-c]pyridin-2(3H)-one], 100 to 1000 nM. Same read-out and setting: the result for `C=CC(=O)N1CC[C@@H](n2c(=O)n(-c3ccc(OCc4ccc(Cl)c(Cl)c4)c(Cl)c3)c3cnccc32)C1` [Example 215, (R)-1-(1-acryloylpyrrolidin-3-yl)-3-(3-chloro-4-((3,4-dichlorobenzyl)oxy)phenyl)-1H-imidazo[4,5-c]pyridin-2(3H)-one] reads 1000 to 10000 nM.

On to `C=CC(=O)Nc1cccc(-n2c(=O)n(-c3ccc(OCc4cc(F)c(F)cc4F)cc3)c3cnccc32)c1` [Example 195, N-(3-(2-oxo-3-(4-((2,4,5-trifluorobenzyl)oxy)phenyl)-2,3-dihydro-1H-imidazo[4,5-c]pyridin-1-yl)phenyl)acrylamide], for which the IC50 is 10 to 100 nM. The same measure, in the same setting: the figure for `C=CC(=O)Nc1cccc(-n2c(=O)n(-c3ccc(Oc4cccc(OCC)c4)cc3)c3cnccc32)c1` [Example 113, N-(3-(3-(4-(3-ethoxyphenoxy)phenyl)-2-oxo-2,3-dihydro-1H-imidazo[4,5-c]pyridin-1-yl)phenyl)acrylamide] is 10 to 100 nM. For `C=CC(=O)N1CCC[C@@H](n2c(=O)n(-c3ccc(Oc4cccc(F)c4C)cc3)c3cnccc32)C1` [Example 57, (R)-1-(1-acryloylpiperidin-3-yl)-3-(4-(3-fluoro-2-methylphenoxy)phenyl)-1H-imidazo[4,5-c]pyridin-2(3H)-one], the IC50 lay in the range of 10 to 100 nM. The same measure, in the same setting: the result for `C=CC(=O)N1CC[C@@H](n2c(=O)n(-c3ccc(Oc4ccc(Cl)cc4)cc3)c3cnccc32)C1` [Example 82, (R)-1-(1-acryloylpyrrolidin-3-yl)-3-(4-(4-chlorophenoxy)phenyl)-1H-imidazo[4,5-c]pyridin-2(3H)-one] reads 100 to 1000 nM; that for `C=CC(=O)N1CC[C@@H](n2c(=O)n(-c3ccc(Oc4ccccc4)cc3)c3c(OC)nccc32)C1` [Example 182, (R)-1-(1-acryloylpyrrolidin-3-yl)-4-methoxy-3-(4-phenoxyphenyl)-1H-imidazo[4,5-c]pyridin-2(3H)-one], not below 10000 nM; that for `C=CC(=O)Nc1cccc(-n2c(=O)n(-c3ccc(OCc4cc(F)ccc4F)cc3)c3cnccc32)c1` [Example 220, N-(3-(3-(4-((2,5-difluorobenzyl)oxy)phenyl)-2-oxo-2,3-dihydro-1H-imidazo[4,5-c]pyridin-1-yl)phenyl)acrylamide], 100 to 1000 nM. The same measure, in the same setting: the result for `C=CC(=O)Nc1cccc(-n2c(=O)n(-c3ccc(OCc4ccc(F)c(F)c4)cc3)c3cnccc32)c1` [Example 241, N-(3-(3-(4-((3,4-difluorobenzyl)oxy)phenyl)-2-oxo-2,3-dihydro-1H-imidazo[4,5-c]pyridin-1-yl)phenyl)acrylamide] reads 100 to 1000 nM; that for `O=C(/C=C/N1CCOCC1)N1CC[C@@H](n2c(=O)n(-c3ccc(Oc4ccccc4)c(Cl)c3)c3cnccc32)C1` [Example 18, (R,E)-3-(3-chloro-4-phenoxyphenyl)-1-(1-(3-morpholinoacryloyl)pyrolidin-3-yl)-1H-imidazo[4,5-c]-pyridin-2(3H)-one], 100 to 1000 nM; that for `C=CC(=O)N1CCC[C@@H](n2c(=O)n(-c3ccc(Oc4cccc(F)c4)cc3)c3cnccc32)C1` [Example 117, (R)-1-(1-acryloylpiperidin-3-yl)-3-(4-(3-fluorophenoxy)phenyl)-1H-imidazo [4,5-c]pyridin-2(3H)-one], 10 to 100 nM.

In the case of `C=CC(=O)N1CC[C@@H](n2c(=O)n(-c3ccc(Oc4cccc(Cl)c4Cl)cc3)c3cnccc32)C1` [Example 99, (R)-1-(1-acryloylpyrrolidin-3-yl)-3-(4-(2,3-dichlorophenoxy)phenyl)-1,3-dihydro-2H-imidazo[4,5-c]pyridin-2-one], the IC50 lay within 10 to 100 nM. Still for that read-out and setting: the figure for `C=CC(=O)Nc1cccc(-n2c(=O)n(-c3ccc(Sc4ccccc4)cc3)c3cnccc32)c1` [Example 157, N-(3-(2-oxo-3-(4-(phenylthio)phenyl)-2,3-dihydro-1H-imidazo[4,5-c]pyridin-1-yl)phenyl)acrylamide] is not above 10 nM; for `C=CC(=O)N1CCC(n2c(=O)n(-c3ccc(Oc4ccccc4)cc3)c3cnccc32)CC1` [Example 30, 1-(1-acryloylpiperidin-4-yl)-3-(4-phenoxyphenyl)-1H-imidazo[4,5-c]pyridin-2(3H)-one] it is not below 10000 nM; for `C=CC(=O)N1CC[C@@H](n2c(=O)n(-c3ccc(OCc4cc(F)ccc4F)cc3)c3cnccc32)C1` [Example 209, (R)-1-(1-acryloylpyrrolidin-3-yl)-3-(4-((2,5-difluorobenzyl)oxy)phenyl)-1H-imidazo[4,5-c]pyridin-2(3H)-one] it is 100 to 1000 nM. Same read-out and setting: the figure for `C=CC(=O)Nc1cccc(-n2c(=O)n(-c3ccc(Oc4cccc(F)c4)c(F)c3)c3cnccc32)c1` [Example 90, N-(3-(3-(3-fluoro-4-(3-fluorophenoxy)phenyl)-2-oxo-2,3-dihydro-1H-imidazo[4,5-c]pyridin-1-yl)phenyl)acrylamide] is 10 to 100 nM. Still for that read-out and setting: the result for `C=CC(=O)Nc1cccc(-n2c(=O)n(-c3ccc(NC(=O)c4ccccc4OC)cc3)c3cnccc32)c1` [Example 258, N-(4-(1-(3-acrylamidophenyl)-2-oxo-1H-imidazo[4,5-c]pyridin-3(2H)-yl)phenyl)-2-methoxybenzamide] reads 10 to 100 nM. Take `C=CC(=O)N1CC[C@@H](n2c(=O)n(-c3ccc(Oc4cc(F)cc(F)c4)c(Cl)c3)c3cnccc32)C1` [Example 39, (R)-1-(1-acryloylpyrrolidin-3-yl)-3-(3-chloro-4-(3,5-difluorophenoxy)phenyl)-1H-imidazo[4,5-c]pyridin-2(3H)-one]: the IC50 was 10 to 100 nM. Same read-out and setting: the result for `C=CC(=O)N1CCC[C@@H](n2c(=O)n(-c3ccc(Oc4cccc(OC)c4F)cc3)c3cncc(OC)c32)C1` [Example 166, (R)-1-(1-acryloylpiperidin-3-yl)-3-(4-(2-fluoro-3-methoxyphenoxy)phenyl)-7-methoxy-1H-imidazo[4,5-c]pyridin-2(3H)-one] reads not above 10 nM.

The values above are taken from patent US10358446B2, “Bruton's tyrosine kinase inhibitors” (Zibo Biopolar Changsheng Pharmaceutical Co. Ltd., priority 2015, dated 2019).
